Data: ChEMBL document CHEMBL1201862, “PubChem BioAssay data set” (2004)
Active and inactive are the calls of the source. For most assays here, no stated cut-off is given here; in the data, actives have a measured EC50 and inactives only a lower limit.

Assays:
[1] = target: Luciferin 4-monooxygenase (Photinus pyralis, UniProt P08659); assay: inhibition of purified Photinus pyralis luciferase – biochemical, luminescence, dose response (AID 1891)
[2] = Luminescence Cell-Based Dose Confirmation HTS to Identify Inhibitors of Platelet Dense Granule Release. [Related pubchem assays: 1663 (Primary HTS), 1678 (Summary of Project)]; format: functional
Protein skinhead-1 = target: T1, Protein skinhead-1 (Caenorhabditis elegans, UniProt P34707); format: functional
T1 sequence (P34707 whole entry): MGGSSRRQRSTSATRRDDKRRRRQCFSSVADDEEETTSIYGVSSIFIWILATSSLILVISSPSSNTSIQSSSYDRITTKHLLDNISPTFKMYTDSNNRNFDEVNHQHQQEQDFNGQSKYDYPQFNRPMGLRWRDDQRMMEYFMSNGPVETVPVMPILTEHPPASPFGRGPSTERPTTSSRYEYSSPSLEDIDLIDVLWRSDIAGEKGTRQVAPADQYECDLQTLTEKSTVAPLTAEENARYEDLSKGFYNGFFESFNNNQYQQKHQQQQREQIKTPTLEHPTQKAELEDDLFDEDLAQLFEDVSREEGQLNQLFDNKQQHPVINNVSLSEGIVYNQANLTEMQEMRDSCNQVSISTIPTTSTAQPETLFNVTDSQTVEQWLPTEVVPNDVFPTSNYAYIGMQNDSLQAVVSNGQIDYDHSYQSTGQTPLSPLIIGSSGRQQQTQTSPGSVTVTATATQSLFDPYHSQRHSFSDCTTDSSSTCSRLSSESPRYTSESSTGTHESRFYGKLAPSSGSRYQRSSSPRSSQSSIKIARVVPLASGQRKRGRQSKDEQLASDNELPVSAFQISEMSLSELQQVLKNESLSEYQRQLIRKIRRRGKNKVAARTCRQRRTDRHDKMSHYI

Cytochrome P450 2D6 = Cytochrome P450 2D6 (Homo sapiens, UniProt P10635);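 further: CYP2D6 member of a cytochrome P450 panel assay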
H9c2 = assay: cells; format: functional, cell-based; conditions: Rattus norvegicus, H9c2, Myocardium
[3] = test system: Streptococcus sp. 'group A'; assay: Streptococcus pyogenes SK(-)GAS viability under kanamycin – luminescence, BacTiterGlo, confirmation, counter-screen for streptokinase expression inhibitor project, dose response (AID 1900); format: functional, organism-based
Streptokinase A = target: T2, Streptokinase A (Streptococcus pyogenes serotype M1, UniProt P10520); assay: viability-normalized secreted streptokinase activity reduction – plasminogen activation absorbance, OD405, dose response (AID 1914); format: functional, Streptococcus pyogenes M1 GAS;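 further: secreted streptokinase activity via plasminogen activation per viability signal from cell pellet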
T2 sequence (P10520 whole entry): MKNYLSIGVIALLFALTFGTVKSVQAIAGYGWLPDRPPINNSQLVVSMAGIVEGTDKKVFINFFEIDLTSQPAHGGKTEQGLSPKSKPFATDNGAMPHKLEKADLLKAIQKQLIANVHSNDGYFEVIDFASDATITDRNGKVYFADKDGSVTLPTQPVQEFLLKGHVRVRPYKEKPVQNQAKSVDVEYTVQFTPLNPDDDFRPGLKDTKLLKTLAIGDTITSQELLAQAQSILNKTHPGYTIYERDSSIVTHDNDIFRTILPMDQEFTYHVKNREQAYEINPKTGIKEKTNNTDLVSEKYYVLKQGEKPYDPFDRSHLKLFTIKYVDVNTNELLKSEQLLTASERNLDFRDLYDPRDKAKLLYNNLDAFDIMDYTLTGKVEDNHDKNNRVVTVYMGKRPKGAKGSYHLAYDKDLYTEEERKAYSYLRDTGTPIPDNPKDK

Streptococcus = assay: GAS UMAA2166 growth inhibition – luminescence, BacTiterGlo, counter-screen for streptokinase expression inhibitor project, dose response (AID 1915); format: functional, organism-based;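 further: potency for reduction of bacterial viability or growth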
[4] = target: FAD-linked sulfhydryl oxidase ALR (Homo sapiens, UniProt P55789); assay: ALR-catalysed DTT oxidation blockers – biochemical, H2O2 detection, luminescence, cherry-pick, dose response (AID 493248)
[5] = target: T3, Ubiquitin-conjugating enzyme E2 N (Homo sapiens, UniProt P61088); format: functional;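 further: Dose-response confirmation in a TR-FRET assay detecting UBC13-driven polyubiquitin chain formation, inhibition measured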
T3 sequence (P61088 whole entry): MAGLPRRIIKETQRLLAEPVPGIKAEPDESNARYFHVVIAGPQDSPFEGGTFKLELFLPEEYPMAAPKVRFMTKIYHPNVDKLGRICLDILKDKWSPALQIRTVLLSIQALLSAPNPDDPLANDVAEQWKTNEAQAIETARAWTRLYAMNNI

[6] = target: Heat shock protein HSP 90-alpha (Homo sapiens, UniProt P07900); format: functional, organism-based
Paired box protein Pax-8 = Paired box protein Pax-8 (Homo sapiens, UniProt Q06710); assay: PAX8 transcriptional activity inhibition in RMG-I – RMG-I cells, luciferase, cherry-pick, dose response (AID 687027); format: functional, cell-based;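 further: luciferase reporter driven by Pax8 target thyroperoxidase promoter measured by SteadyGlo luminescence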
BJ [7] = assay: BJ-TERT fibroblast viability loss – cell-based, RAS-independent, luminescence, dose response (AID 1933); format: functional; conditions: Homo sapiens
BJ [8] = assay: cells; format: functional, cell-based; conditions: Homo sapiens
BJ [9] = assay: BJ-TERT-LT-ST fibroblast viability loss – cell-based, RAS-independent, luminescence, dose response (AID 1935); format: functional; conditions: Homo sapiens;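 further: BJ fibroblasts immortalized with TERT plus LT and ST oncogenes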
[10] = DRD fibroblast viability loss – cell-based, non-viral oncogenic, luminescence, dose response (AID 1934); format: functional; conditions: Homo sapiens
[11] = target: T4, Corticotropin-releasing factor receptor 2/Corticotropin-releasing factor-binding protein (Homo sapiens, UniProt P24387+Q13324); assay: Dose Response confirmation of uHTS hits for small molecule antagonists of the CRF-binding protein and CRF-R2 receptor complex.; format: functional; conditions: read-out: IC50_Mean
T4 sequence (Q13324 whole entry): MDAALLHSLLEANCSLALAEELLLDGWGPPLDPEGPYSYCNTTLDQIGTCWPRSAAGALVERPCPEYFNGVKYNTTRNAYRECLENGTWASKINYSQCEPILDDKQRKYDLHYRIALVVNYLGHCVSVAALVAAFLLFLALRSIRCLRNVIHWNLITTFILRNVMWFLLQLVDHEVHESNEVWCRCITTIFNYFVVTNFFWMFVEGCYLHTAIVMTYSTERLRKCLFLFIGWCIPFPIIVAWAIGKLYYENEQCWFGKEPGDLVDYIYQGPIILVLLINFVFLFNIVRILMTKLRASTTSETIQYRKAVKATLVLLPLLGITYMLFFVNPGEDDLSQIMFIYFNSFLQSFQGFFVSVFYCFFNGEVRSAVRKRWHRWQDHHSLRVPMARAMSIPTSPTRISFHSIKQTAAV
T4 sequence (P24387 whole entry): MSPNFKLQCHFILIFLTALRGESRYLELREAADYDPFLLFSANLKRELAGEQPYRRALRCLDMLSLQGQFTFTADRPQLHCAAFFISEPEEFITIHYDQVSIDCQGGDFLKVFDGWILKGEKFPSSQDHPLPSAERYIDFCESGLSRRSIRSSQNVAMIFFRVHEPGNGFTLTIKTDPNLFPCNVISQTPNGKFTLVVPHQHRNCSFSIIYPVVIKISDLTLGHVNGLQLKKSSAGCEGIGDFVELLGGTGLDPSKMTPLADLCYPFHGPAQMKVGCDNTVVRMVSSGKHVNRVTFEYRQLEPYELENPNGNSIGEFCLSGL

[12] = target: T4, Corticotropin-releasing factor receptor 2/Corticotropin-releasing factor-binding protein; assay: activators of CRF receptor 2 with binding protein – uHTS hits, confirmation (AID 602473); format: functional; conditions: read-out: EC50_Mean
[13] = luciferase reporter signal suppression in cells – H4 neuroglioma cells, luminescence, dose response (AID 1990); format: functional, cell-based
[14] = Luminescence Cell-Based Dose Response HTS to Identify Inhibitors of 5'UTR Stem-Loop Driven Prion Protein mRNA Translation in H4 Neuroglioblastoma Cells. [Related pubchem assays: 1827 (Project Summary), 1813 (Primary HTS)]; format: functional
[15] = alpha-synuclein stem-loop luciferase translation blockers – H4 neuroglioma cells, luminescence, confirmation (AID 1988); format: functional, cell-based

FAD-linked sulfhydryl oxidase ALR, sequence (P55789 whole entry): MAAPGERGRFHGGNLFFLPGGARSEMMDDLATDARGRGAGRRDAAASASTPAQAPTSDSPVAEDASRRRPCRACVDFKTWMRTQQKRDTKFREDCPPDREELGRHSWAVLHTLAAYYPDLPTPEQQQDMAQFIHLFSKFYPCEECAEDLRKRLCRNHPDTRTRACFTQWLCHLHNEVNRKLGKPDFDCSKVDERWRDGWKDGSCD
Luciferin 4-monooxygenase, sequence (P08659 whole entry): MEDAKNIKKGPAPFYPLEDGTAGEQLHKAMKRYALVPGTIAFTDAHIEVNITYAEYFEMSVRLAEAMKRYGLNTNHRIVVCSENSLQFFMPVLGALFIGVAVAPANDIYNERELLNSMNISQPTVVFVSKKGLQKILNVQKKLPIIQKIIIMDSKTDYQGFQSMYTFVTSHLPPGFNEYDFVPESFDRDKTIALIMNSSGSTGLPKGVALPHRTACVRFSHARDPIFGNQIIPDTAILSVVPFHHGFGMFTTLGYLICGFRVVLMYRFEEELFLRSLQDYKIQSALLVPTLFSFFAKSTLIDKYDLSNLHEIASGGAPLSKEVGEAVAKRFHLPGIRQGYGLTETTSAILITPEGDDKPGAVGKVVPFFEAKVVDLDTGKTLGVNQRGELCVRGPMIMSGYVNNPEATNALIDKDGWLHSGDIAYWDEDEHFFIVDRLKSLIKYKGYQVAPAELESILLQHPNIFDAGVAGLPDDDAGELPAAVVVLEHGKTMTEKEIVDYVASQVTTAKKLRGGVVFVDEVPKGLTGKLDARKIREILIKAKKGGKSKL
Paired box protein Pax-8, sequence (Q06710 whole entry): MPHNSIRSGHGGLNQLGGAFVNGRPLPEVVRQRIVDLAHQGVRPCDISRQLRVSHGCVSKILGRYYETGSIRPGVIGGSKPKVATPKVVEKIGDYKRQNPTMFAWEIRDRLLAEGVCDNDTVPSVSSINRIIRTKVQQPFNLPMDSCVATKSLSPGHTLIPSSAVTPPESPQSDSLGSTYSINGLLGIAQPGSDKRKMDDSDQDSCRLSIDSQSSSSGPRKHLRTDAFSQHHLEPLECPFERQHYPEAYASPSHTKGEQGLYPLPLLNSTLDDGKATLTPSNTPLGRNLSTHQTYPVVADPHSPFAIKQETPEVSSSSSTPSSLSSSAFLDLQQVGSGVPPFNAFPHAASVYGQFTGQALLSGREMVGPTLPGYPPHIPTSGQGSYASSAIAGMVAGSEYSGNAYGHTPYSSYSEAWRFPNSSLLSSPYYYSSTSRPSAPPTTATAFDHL
Cytochrome P450 2D6, sequence (P10635 whole entry): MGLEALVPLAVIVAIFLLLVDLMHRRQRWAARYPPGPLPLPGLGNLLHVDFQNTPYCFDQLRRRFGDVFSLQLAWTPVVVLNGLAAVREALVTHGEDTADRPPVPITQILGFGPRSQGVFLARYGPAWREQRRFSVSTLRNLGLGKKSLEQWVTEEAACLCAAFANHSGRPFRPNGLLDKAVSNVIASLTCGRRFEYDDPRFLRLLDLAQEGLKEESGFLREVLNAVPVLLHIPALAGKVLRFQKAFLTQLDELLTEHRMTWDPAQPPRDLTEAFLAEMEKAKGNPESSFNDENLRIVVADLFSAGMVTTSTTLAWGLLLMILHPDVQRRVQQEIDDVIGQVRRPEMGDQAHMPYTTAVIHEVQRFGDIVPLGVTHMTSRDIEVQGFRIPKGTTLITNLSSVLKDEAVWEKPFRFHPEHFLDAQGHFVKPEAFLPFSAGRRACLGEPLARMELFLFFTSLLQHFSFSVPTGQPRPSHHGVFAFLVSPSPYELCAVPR

## CCc1ccc(N2CC(C(=O)OCC(=O)c3c(N)n(CC(C)C)c(=O)n(C)c3=O)CC2=O)cc1 (stereo not given)
[1]
  EC50: > 112 µM (not active)
[2]
  EC50: > 112 µM (not active)

## Cn1cc(S(=O)(=O)N2CCOCC2)cc1C(=O)NCCc1ccccc1
[1]
  EC50: > 112 µM (not active)
[2]
  EC50: > 112 µM (not active)

## CCCc1nc2ccccc2c(=O)n1-c1ccc(OC)cc1
Protein skinhead-1
  IC50: > 100 µM (inactive)
Cytochrome P450 2D6
  AC50: 14.1 µM (inconclusive)

## Cn1ncc(Cl)c1C(=O)N/N=C/c1ccccn1
H9c2
  IC50: 71.6 µM (inactive)

## Clc1ccc(-c2nnc(-c3cccnc3)o2)cc1
Protein skinhead-1
  IC50: 30.1 µM (active)

## Cc1ccc2sc(NNC(=O)c3ccc4c(c3)OCCO4)nc2c1C
[3]
  EC50: 13 µM (active)
Streptokinase A
  EC50: > 150 µM (not active)
Streptococcus
  EC50: 18.3 µM (active)
H9c2
  IC50: 32.5 µM (inactive)

## Cc1ccc(S(=O)(=O)Nc2c(C(=O)O)[nH]c3ccccc23)c(C)c1
[4]
  AC50: 12.7 µM (active)

## CCN1CCN(C(=O)c2cc(-c3ccco3)nc3ccccc23)CC1
[5]
  IC50: > 20 µM (inactive)

## CCc1cccc(NC(=O)CSC2=NS(=O)(=O)c3ccccc32)c1
[5]
  IC50: > 20 µM (inactive)

## COc1cccc(/C=N/Nc2ncnc3scc(-c4ccccc4)c23)c1OC
H9c2
  IC50: > 79 µM (inactive)

## COc1cccc2cc(C(C)N(CCCN3CCOCC3)C(=O)Nc3ccccc3)oc12 (stereo not given)
[1]
  EC50: > 112 µM (not active)
[2]
  EC50: > 112 µM (not active)

## Cc1cc(C)c(C)c(S(=O)(=O)N2CCN(C(=O)c3cc(O)nc4ccccc34)CC2)c1C
H9c2
  IC50: > 79 µM (inactive)

## CC(C)C[C@@H]1CN=C(N)N1C[C@@H]1CCCN1C[C@H](C)N1C[C@@H](Cc2ccccc2)N(CCc2ccc(Cl)c(Cl)c2)C1=N
[5]
  IC50: > 20 µM (inactive)

## CC1=CC(C)CC(C)OC(=O)CC(c2ccc(O)cc2)NC(=O)C(Cc2c(Br)[nH]c3ccccc23)N(C)C(=O)C(C)NC(=O)C(C)C1 (stereo not given)
[6]
  AC50: 4.09 µM (active)
Paired box protein Pax-8
  AC50: < 0.26 µM (active)

## O=C(Cn1[nH]c(=O)c2ccccc2c1=O)OCC(=O)N1CCc2ccccc2C1
H9c2
  IC50: 28.5 µM (active)

## CC1CCCN(C(=O)c2ccncc2)C1 (stereo not given)
Protein skinhead-1
  IC50: > 100 µM (inactive)

## CCOC(=O)N1CCN(C(=O)Cc2ccc(-n3c(=S)[nH]c4ccccc4c3=O)cc2)CC1
[5]
  IC50: > 20 µM (inactive)

## Cc1ccccc1NC(=O)CSC1=C(C#N)C(c2ccsc2)CC(=O)N1 (stereo not given)
Protein skinhead-1
  IC50: > 100 µM (inactive)

## Cc1ccc(S(=O)(=O)CCc2nnc(NC(=O)CCl)s2)cc1C
BJ [7]
  EC50: 3.06 µM (active)
BJ [8]
  EC50: 14.7 µM (active)
BJ [9]
  EC50: > 150 µM (not active)
[10]
  EC50: 10.5 µM (active)

## C[C@@H]1CCCCO[C@@H](CN(C)Cc2ccc(Cl)c(Cl)c2)[C@H](C)CN([C@@H](C)CO)C(=O)c2cc(NC(=O)Cc3ccccc3)ccc2O1
Paired box protein Pax-8
  AC50: 4.54 µM (active)

## COc1ccc(OC)c(Nc2nc(C3CC3)nc3c2nnn3Cc2ccccc2)c1
[1]
  EC50: > 112 µM (not active)
[2]
  EC50: > 112 µM (not active)

## Cn1c(=O)c2c(nc(Br)n2Cc2ccc3ccccc3c2)n(C)c1=O
H9c2
  IC50: 13.7 µM (active)

## N#CCC(=O)Nc1ccc(C(=O)NCc2ccccn2)cc1
[4]
  AC50: 2.41 µM (active)

## CCC(C)N(C(=O)COC(=O)Cc1nnc(O)c2ccccc12)C1CCS(=O)(=O)C1 (stereo not given)
H9c2
  IC50: > 79 µM (inactive)

## CCNc1nc(Cl)nc(NC(C)C)n1 [ATRAZINE]
[1]
  EC50: > 112 µM (not active)
[2]
  EC50: > 112 µM (not active)

## CCCCn1nc(C(=O)Oc2ccc3c(C)cc(=O)oc3c2)c2ccccc2c1=O
H9c2
  IC50: > 79 µM (inactive)

## Brc1ccc(-c2cn3cccnc3n2)cc1
Protein skinhead-1
  IC50: > 100 µM (inactive)

## COc1ccccc1C(=O)Nc1ccc2c(c1)CCCN2C(=O)c1ccccc1
[1]
  EC50: 0.712 µM (active)
[2]
  EC50: 19.1 µM (active)

## Cn1c(=O)[nH]c(=O)c2c1nc(N1CCCCCC1)n2CC(N)=O
[1]
  EC50: > 112 µM (not active)
[2]
  EC50: > 112 µM (not active)

## O=C(c1ccco1)N1CCN=C1SCc1ccccc1Cl
[4]
  AC50: 0.41 µM (active)
[11]
  IC50: > 47.1 µM (inactive)
[12]
  EC50: > 53 µM (inactive)

## CS(=O)(=O)N1CCC(Oc2ccccc2C(=O)N2CCN(CC3CC3)CC2)CC1
[1]
  EC50: > 112 µM (not active)
[2]
  EC50: > 112 µM (not active)

## CC(=O)Nc1cc(-c2cccc(NS(C)(=O)=O)c2)cn2c(-c3cccc(C(C)=O)c3)cnc12
H9c2
  IC50: 12.8 µM (active)

## CCOc1nc(-c2ccncc2)nc2ccccc12
Protein skinhead-1
  IC50: > 100 µM (inactive)

## Fc1cc(Br)ccc1COc1ccc(-c2nnco2)cc1
Protein skinhead-1
  IC50: > 100 µM (inactive)

## COCCOC(=O)c1[nH]c2c(c1C)C(=O)CC(c1ccccc1)C2 (stereo not given)
[13]
  EC50: 8.73 µM (inconclusive)
BJ [7]
  EC50: 2.62 µM (inconclusive)
[14]
  EC50: 10.6 µM (active)
[15]
  EC50: 4.34 µM (active)
BJ [8]
  EC50: 4.01 µM (active)
BJ [9]
  EC50: 1.79 µM (active)
[10]
  EC50: 2 µM (active)

## CN(C)CCCSc1nc2ccccc2s1
[4]
  AC50: 0.171 µM (active)

## COc1ccc(C2C(C(=O)Nc3cc(OC)c(OC)c(OC)c3)c3ccccc3C(=O)N2C)cc1 (stereo not given)
BJ [7]
  EC50: 2.43 µM (inconclusive)
BJ [8]
  EC50: 104 µM (inconclusive)
BJ [9]
  EC50: 2.56 µM (inconclusive)
[10]
  EC50: 2.62 µM (active)

## CC1CCCC(NC(=O)CSc2ncnc3ccccc23)C1C (stereo not given)
[5]
  IC50: > 20 µM (inactive)
